Results as given in the supplement of paper PMC8617591.

Assays:
[1] = system: Mycobacterium tuberculosis Erdman (autoluminescent); assay: total FIC50 (Loewe) at 50% inhibition, three-drug combination (log2); higher = more antagonistic
Method: (§1)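 DiaMOND equipotent three-drug combination dose responses (10 doses, 1.5- or 2-fold spacing, centred on IC90) against autoluminescent M. tuberculosis Erdman in 8 in vitro models. Read-out is OD600, or luminescence for the intracellular and dormancy models, normalised to untreated wells. Hill-fit Einf, AUC25 and GRinf are potency metrics; FIC50 and FIC90 are total Loewe fractional inhibitory concentrations as log2 (negative = synergy).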

[2] = system: Mycobacterium tuberculosis Erdman (autoluminescent); assay: total FIC90 (Loewe) at 90% inhibition, three-drug combination (log2); higher = more antagonistic
Method: as §1

[3] = system: Mycobacterium tuberculosis Erdman (autoluminescent); assay: Einf, fitted maximum growth inhibition of three-drug combination (fraction); higher = stronger maximal inhibition
Method: as §1

[4] = system: Mycobacterium tuberculosis Erdman (autoluminescent); assay: AUC25, normalised area under dose response up to IC25 (three-drug combination) (fraction (0-1)); higher = more potent at low dose
Method: as §1

[5] = system: Mycobacterium tuberculosis Erdman (autoluminescent); assay: GRinf, maximum normalised growth rate inhibition (three-drug combination) (unitless (-1 to 1)); higher = less effect (negative = killing)
Method: as §1

CC[C@@H](CO)NCCN[C@@H](CC)CO [ethambutol] + NC(=O)c1cnccn1 [pyrazinamide] + CO[C@H]1/C=C/O[C@@]2(C)Oc3c(C)c(O)c4c(O)c(c(/C=N/N5CCN(C6CCCC6)CC5)c(O)c4c3C2=O)NC(=O)/C(C)=C\C=C\[C@H](C)[C@H](O)[C@@H](C)[C@@H](O)[C@@H](C)[C@H](OC(C)=O)[C@@H]1C [rifapentine]
Details | AUC25, [4] | Einf, [3] | GRinf, [5] | total FIC50, [1] | total FIC90, [2]
in vitro model: acidic pH 5.7, time point: constant (~7 days, model-specific) | 0.0954 | 0.885 | -0.165 | -0.399 | –
in vitro model: acidic pH 5.7, time point: terminal (~4-5 doublings, model-specific) | 0.0652 | 0.98 | -0.191 | -0.0475 | –
in vitro model: intracellular J774, time point: constant = terminal | – | 0.977 | -0.419 | – | -1.88

Details | AUC25, [4] | Einf, [3] | GRinf, [5] | total FIC50, [1] | total FIC90, [2]
in vitro model: butyrate, time point: constant (~7 days, model-specific) | 0.0808 | 0.911 | 0.0172 | 0.221 | –
in vitro model: butyrate, time point: terminal (~4-5 doublings, model-specific) | 0.0667 | 0.958 | 0.025 | 0.309 | -0.154
in vitro model: cholesterol 0.05 mM, time point: constant (~7 days, model-specific) | 0.116 | 0.659 | -0.834 | – | –
in vitro model: cholesterol 0.05 mM, time point: terminal (~4-5 doublings, model-specific) | 0.11 | 0.886 | -0.315 | 1.58 | –
in vitro model: cholesterol-high 0.2 mM, time point: constant (~7 days, model-specific) | 0.0322 | 0.941 | -0.414 | 1.2 | –
in vitro model: cholesterol-high 0.2 mM, time point: terminal (~4-5 doublings, model-specific) | 0.0395 | 0.999 | -0.679 | 1.46 | 1.21
in vitro model: dormancy (butyrate + nitrate, low O2), time point: constant (~7 days, model-specific) | 0.0922 | 0.87 | 0.301 | -0.0129 | –
in vitro model: dormancy (butyrate + nitrate, low O2), time point: terminal (~4-5 doublings, model-specific) | 0.116 | 0.984 | -0.233 | 0.284 | 1.88
in vitro model: standard 7H9 glycerol, time point: constant = terminal | 0.0407 | 0.883 | 0.165 | 0.158 | –
in vitro model: valerate, time point: constant (~7 days, model-specific) | 0.0408 | 0.821 | 0.114 | 0.105 | –
in vitro model: valerate, time point: terminal (~4-5 doublings, model-specific) | 0.0268 | 0.909 | 0.11 | 0.338 | -0.692

CC[C@@H](CO)NCCN[C@@H](CC)CO [ethambutol] + NC(=O)c1cnccn1 [pyrazinamide] + CO[C@H]1/C=C/O[C@@]2(C)Oc3c(C)c(O)c4c(O)c(c(/C=N/N5CCN(C)CC5)c(O)c4c3C2=O)NC(=O)/C(C)=C\C=C\[C@H](C)[C@H](O)[C@@H](C)[C@@H](O)[C@@H](C)[C@H](OC(C)=O)[C@@H]1C [rifampicin]
Details | AUC25, [4] | Einf, [3] | GRinf, [5] | total FIC50, [1] | total FIC90, [2]
in vitro model: acidic pH 5.7, time point: constant (~7 days, model-specific) | 0.0703 | 0.91 | -0.349 | -0.177 | –
in vitro model: acidic pH 5.7, time point: terminal (~4-5 doublings, model-specific) | 0.0348 | 0.982 | -0.218 | 0.428 | -0.924
in vitro model: intracellular J774, time point: constant = terminal | – | 0.966 | -0.396 | – | -2.06

Details | AUC25, [4] | Einf, [3] | GRinf, [5] | total FIC50, [1] | total FIC90, [2]
in vitro model: butyrate, time point: constant (~7 days, model-specific) | 0.0895 | 0.919 | 0.0103 | 0.151 | –
in vitro model: butyrate, time point: terminal (~4-5 doublings, model-specific) | 0.0793 | 0.964 | 0.024 | 0.114 | -0.38
in vitro model: cholesterol 0.05 mM, time point: constant (~7 days, model-specific) | 0.089 | 0.596 | 0.0152 | – | –
in vitro model: cholesterol 0.05 mM, time point: terminal (~4-5 doublings, model-specific) | 0.105 | 0.954 | -0.297 | 1.25 | –
in vitro model: cholesterol-high 0.2 mM, time point: constant (~7 days, model-specific) | 0.0452 | 0.964 | -0.34 | 1.12 | –
in vitro model: cholesterol-high 0.2 mM, time point: terminal (~4-5 doublings, model-specific) | 0.043 | 0.995 | -0.69 | 1.15 | 0.828
in vitro model: dormancy (butyrate + nitrate, low O2), time point: constant (~7 days, model-specific) | 0.134 | 0.906 | 0.291 | -1.12 | –
in vitro model: dormancy (butyrate + nitrate, low O2), time point: terminal (~4-5 doublings, model-specific) | 0.0829 | 0.989 | -0.155 | -0.532 | 0.414
in vitro model: standard 7H9 glycerol, time point: constant = terminal | 0.0436 | 0.897 | 0.134 | 0.0958 | –
in vitro model: valerate, time point: constant (~7 days, model-specific) | 0.0382 | 0.854 | 0.143 | 0.23 | –
in vitro model: valerate, time point: terminal (~4-5 doublings, model-specific) | 0.0278 | 0.92 | 0.0943 | 0.205 | -0.873

CC[C@@H](CO)NCCN[C@@H](CC)CO [ethambutol] + NNC(=O)c1ccncc1 [isoniazid] + CC(=O)NC[C@H]1CN(c2ccc(N3CCOCC3)c(F)c2)C(=O)O1 [linezolid]
Details | AUC25, [4] | Einf, [3] | GRinf, [5] | total FIC50, [1] | total FIC90, [2]
in vitro model: acidic pH 5.7, time point: constant (~7 days, model-specific) | 0.108 | 0.831 | -0.311 | 0.672 | –
in vitro model: acidic pH 5.7, time point: terminal (~4-5 doublings, model-specific) | 0.0511 | 0.939 | -0.218 | 1.64 | 0.241
in vitro model: intracellular J774, time point: constant = terminal | – | 0.958 | -0.189 | – | -0.0766

Details | AUC25, [4] | Einf, [3] | GRinf, [5] | total FIC50, [1] | total FIC90, [2]
in vitro model: butyrate, time point: constant (~7 days, model-specific) | 0.101 | 0.9 | 0.0696 | 0.578 | –
in vitro model: butyrate, time point: terminal (~4-5 doublings, model-specific) | 0.0839 | 0.943 | 0.0902 | 0.593 | 1.01
in vitro model: cholesterol 0.05 mM, time point: constant (~7 days, model-specific) | 0.148 | 0.693 | -0.305 | -0.315 | –
in vitro model: cholesterol 0.05 mM, time point: terminal (~4-5 doublings, model-specific) | 0.166 | 0.918 | -0.286 | -1.8 | –
in vitro model: cholesterol-high 0.2 mM, time point: constant (~7 days, model-specific) | 0.102 | 0.925 | -0.717 | 0.686 | –
in vitro model: cholesterol-high 0.2 mM, time point: terminal (~4-5 doublings, model-specific) | 0.121 | 1 | -0.966 | 0.382 | 1.42
in vitro model: dormancy (butyrate + nitrate, low O2), time point: constant (~7 days, model-specific) | 0.117 | 0.801 | 0.434 | 0.669 | –
in vitro model: dormancy (butyrate + nitrate, low O2), time point: terminal (~4-5 doublings, model-specific) | 0.1 | 0.971 | -0.188 | 0.326 | 0.438
in vitro model: standard 7H9 glycerol, time point: constant = terminal | 0.0661 | 0.911 | 0.099 | 0.88 | –
in vitro model: valerate, time point: constant (~7 days, model-specific) | 0.127 | 0.91 | -0.184 | 0.573 | –
in vitro model: valerate, time point: terminal (~4-5 doublings, model-specific) | 0.0732 | 0.944 | -0.0217 | 0.769 | 0.881

CC[C@@H](CO)NCCN[C@@H](CC)CO [ethambutol] + NNC(=O)c1ccncc1 [isoniazid] + CO[C@H]1/C=C/O[C@@]2(C)Oc3c(C)c(O)c4c(O)c(c(/C=N/N5CCN(C6CCCC6)CC5)c(O)c4c3C2=O)NC(=O)/C(C)=C\C=C\[C@H](C)[C@H](O)[C@@H](C)[C@@H](O)[C@@H](C)[C@H](OC(C)=O)[C@@H]1C [rifapentine]
Details | AUC25, [4] | Einf, [3] | GRinf, [5] | total FIC50, [1] | total FIC90, [2]
in vitro model: acidic pH 5.7, time point: constant (~7 days, model-specific) | 0.116 | 0.926 | -0.233 | -0.0354 | –
in vitro model: acidic pH 5.7, time point: terminal (~4-5 doublings, model-specific) | 0.0443 | 0.974 | -0.12 | 0.316 | -0.0587
in vitro model: intracellular J774, time point: constant = terminal | – | 0.961 | -0.299 | – | -1.77

Details | AUC25, [4] | Einf, [3] | GRinf, [5] | total FIC50, [1] | total FIC90, [2]
in vitro model: butyrate, time point: constant (~7 days, model-specific) | 0.0656 | 0.919 | -0.00839 | 0.419 | –
in vitro model: butyrate, time point: terminal (~4-5 doublings, model-specific) | 0.0504 | 0.961 | 0.0115 | 0.431 | -0.175
in vitro model: cholesterol 0.05 mM, time point: constant (~7 days, model-specific) | 0.0782 | 0.62 | 0.0218 | 0.251 | –
in vitro model: cholesterol 0.05 mM, time point: terminal (~4-5 doublings, model-specific) | 0.0679 | 0.705 | 0.236 | 0.672 | –
in vitro model: cholesterol-high 0.2 mM, time point: constant (~7 days, model-specific) | 0.0261 | 0.963 | -0.465 | 1.28 | –
in vitro model: cholesterol-high 0.2 mM, time point: terminal (~4-5 doublings, model-specific) | 0.0378 | 1 | -0.581 | 1.47 | 1.31
in vitro model: dormancy (butyrate + nitrate, low O2), time point: constant (~7 days, model-specific) | 0.123 | 0.85 | 0.351 | 0.273 | –
in vitro model: dormancy (butyrate + nitrate, low O2), time point: terminal (~4-5 doublings, model-specific) | 0.118 | 0.99 | -0.216 | 0.00837 | 0.792
in vitro model: standard 7H9 glycerol, time point: constant = terminal | 0.0469 | 0.904 | 0.0971 | 0.347 | –
in vitro model: valerate, time point: constant (~7 days, model-specific) | 0.0468 | 0.866 | 0.0486 | 0.524 | –
in vitro model: valerate, time point: terminal (~4-5 doublings, model-specific) | 0.0336 | 0.929 | 0.0406 | 0.609 | -0.125
